Measurements reported in paper PMC7849180 (Frontiers in Pharmacology, 2020).

Key:
JAK2 signaling pathway = test: JAK2 signaling in NSG mice injected with HCD-57-JAK2V617F cells; assay type: in vivo; conditions: single 200 mg/kg intraperitoneally, 4 h
Description: (§1) Suzhou Zelgen Biopharmaceuticals Co., Ltd. Jaktinib Hydrochloride Tablets Chemical Drug Class 1 New Drug […]
cells at a concentration of 1 μM. […]
effectively affect the primary cells harboring the JAK2V617F mutation in patients with […]
In Vivo Pharmacodynamic Study of ZG0128 in Mouse Model of Myeloproliferative Neoplasm
Primary myelofibrosis (PMF) is characterized by the formation of bone marrow fibrous tissues (scar-like) caused by the abnormal proliferation of three types of cells (platelets, white blood cells, and red blood cells). At present, there is still no particularly effective treatment for these diseases. JAKV617F transgenic mice and JAK2V617F bone marrow transplanted mice can develop the pathological characteristics of myeloproliferative neoplasm, which can be used to effectively evaluate the efficacy of drugs used in the treatment of myeloproliferative neoplasms.
HCD-57-JAK2V617F cells were intravenously injected into NSG mice. Three weeks later, the mice were injected intraperitoneally with a single dose of 200 mg/kg of compound ZG0128, and euthanized 4 h after drug administration. The results of […]
nucleated cells in spleen were HCD-57-JAK2V617F transplanted cells. Western blot […]
the phosphorylation of downstream major signaling proteins of JAK2, i.e., ERK1/2, […]
inhibit the JAK2 signaling pathway in vivo. […]

[1] = Metabolic stability in liver microsomes; assay type: in vitro ADME, mouse
Description: The metabolic stability of ZG0128 (the dihydrochloride monohydrate of ZG0163) was evaluated using human, monkey, dog, rat, and mouse liver microsomes as the in vitro models. The percentages of residues for ZG0128 after incubating in human, monkey, dog, rat, and mouse liver microsomes for 60 minutes was 55.5%, 63.1%, 67.1%, 80.3%, and 79.0%, respectively. The CLint values of in vivo clearance were calculated to be 24.1, 21.6, 33.4, 10.7, 26.0 mL/min/kg, respectively. Thus its was speculated that ZG0128 was a medium clearance drug in humans, monkeys, and mice, a high clearance drug in dogs, and a low clearance drug in rats.
Using UPLC-UV/Q-TOF MS, the potential metabolites of ZG0128 in various liver microsomes (human, monkey, dog, rat and mouse liver microsomes) incubation systems were identified and the metabolic pathways of ZG0128 were speculated. The main metabolite of ZG0128 in above five types of liver microsomes were primary alcohol metabolite formed by morpholine ring-opening (M3). […]

CYP1A2 = assay type: in vitro ADME, human; conditions: 0.10, 1.00, 10.0 μM
Text: as §1
metabolite formed in human liver microsomes was the morpholine ring-opening metabolite M3. The enzyme phenotype involved in the oxidation of ZG0128 to form M3 was identified with reaction phenotyping assay using chemical inhibition and human recombinant CYP450 enzymes.
Using UPLC/Q-TOF MS, the amount of ZG0128 and primary alcohol metabolite formed by morpholine ring-opening (M3) in human liver microsomes and different incubation systems for human recombinant enzymes, including CYP1A2, CYP2A6, […]
inhibitor 1-ABT, CYP3A inhibitor ketoconazole, and CYP2C8 inhibitor quercetin can […]
for human liver microsomes and inhibit the formation of M3. […]
primary enzyme that produced M3 while CYP1A2, 2D6 and 2C9 were also partly involved. Results from the reaction phenotyping assay using chemical inhibition and […]
microsomes was a morpholine ring-opening metabolite catalyzed mainly by CYP3A4 […]
Inhibition and Induction of ZG0128 on CYP-P450s
The inhibition and induction potentials of ZG0128 on CYP-P450s were evaluated using mixed human liver microsomes and human primary hepatocytes as the in vitro […]
hydroxylation), and CYP3A4 (testosterone 6β-hydroxylation), with an IC50 greater than […]. […]

[2] = Estimate of human equivalent and starting dose from animal NOAEL; conditions: for maximum safe starting dose in human: safety factor 10; for MRSD: safety factor 10, 60 kg
Description: The human equivalent doses (HED) for the above tests were 9 mg/kg and 5 mg/kg, respectively (Table 9). According to the "Guidance for Estimating the Maximum Recommended Dose in Initial Clinical Trials for Therapeutics in Adult Healthy Volunteers" issued by CFDA and a safety factor of 10, the maximum safe starting doses for the first dose in human were calculated as about 50 mg and 30 mg, respectively.
The single starting dose of this study was set to 25 mg, while the highest dose was set to 400 mg. The 400 mg dose would not be further increased even it was […]
Animal Test Anima Dosage HNSTD HED MRSD […]
Toxicity Test 61.0/oral gavage in Beagle Dogs 196.2/oral gavage a The safety factor was 10, while the human body weight was calculated as 60 kg. […]

Cl.Cl.O.[2H]C1([2H])COCC([2H])([2H])N1c1ccc(Nc2nccc(-c3ccc(C(=O)NCC#N)cc3)n2)cc1 [ZG0128, Jaktinib Dihydrochloride Monohydrate]
phosphorylation of ERK1/2, Akt and STAT5 in splenocytes (JAK2 signaling pathway): significantly inhibited | CLint of in vivo clearance [1]: 26.0 mL/min/kg | percentage of residue after 60 minutes [1]: 79.0% | in vitro induction (CYP1A2): no in vitro induction

Jaktinib
human equivalent dose (HED) ([2]; from 26-week rat NOAEL): 5 mg/kg | human equivalent dose (HED) ([2]; from 28-day Beagle dog NOAEL): 9 mg/kg | maximum safe starting dose in human ([2]; from dog NOAEL): about 50 mg | MRSD ([2]; from dog NOAEL): 54 mg/day | maximum safe starting dose in human ([2]; from rat NOAEL): ~30 mg | MRSD ([2]; from rat NOAEL): 30 mg/day
